Measured values: ChEMBL document CHEMBL1201862, “PubChem BioAssay data set” (2004)
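Method: 48-hour compound exposure of cells in 96-well plates, five concentrations, linear interpolation of endpoints. Abbreviation: GI50, concentration required for 50% inhibition of growth.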 The source made the active and inactive calls. Rule as the data show it: active = GI50 up to about 1.1 µM and inactive = higher.

How the values were obtained:
Assay in all cases: growth of human tumour cells (NCI), 48 h
786-0 = system: 786-0
A498 = system: A498
A549 = system: A549
ACHN = system: ACHN
BT-549 = system: BT-549
CAKI-1 = system: CAKI-1
CCRF-CEM = system: CCRF-CEM
COLO 205 = system: COLO 205
DU-145 = system: DU-145
EKVX = system: EKVX
HCC 2998 = system: HCC 2998
HCT-116 = system: HCT-116
HCT-15 = system: HCT-15
HL-60 = system: HL-60
HOP-62 = system: HOP-62
HOP-92 = system: HOP-92
HT-29 = system: HT-29
IGROV-1 = system: IGROV-1
K562 = system: K562
KM12 = system: KM12
LOX IMVI = system: LOX IMVI
MCF7 = system: MCF7
MDA-MB-231 = system: MDA-MB-231
MDA-MB-435 = system: MDA-MB-435
MOLT-4 = system: MOLT-4
Malme-3M = system: Malme-3M
NCI-H226 = system: NCI-H226
NCI-H23 = system: NCI-H23
NCI-H460 = system: NCI-H460
NCI-H522 = system: NCI-H522
NCI/ADR-RES = system: NCI/ADR-RES
OVCAR-3 = system: OVCAR-3
OVCAR-4 = system: OVCAR-4
OVCAR-5 = system: OVCAR-5
OVCAR-8 = system: OVCAR-8
PC-3 = system: PC-3
RXF 393 = system: RXF 393
SF-268 = system: SF-268
SF-295 = system: SF-295
SK-MEL-28 = system: SK-MEL-28
SK-MEL-2 = system: SK-MEL-2
SK-MEL-5 = system: SK-MEL-5
SN12C = system: SN12C
SNB-19 = system: SNB-19
SNB-75 = system: SNB-75
SR = system: SR
SW-620 = system: SW-620
T47D = system: T47D
TK-10 = system: TK-10
U-251 = system: U-251
UACC-257 = system: UACC-257
UACC-62 = system: UACC-62
UO-31 = system: UO-31
Hs-578T = system: Hs-578T
M14 = system: M14
SF-539 = system: SF-539
SK-OV-3 = system: SK-OV-3

CCOC(=O)C1C(=O)CC(C)(O)C(C(=O)OCC)C1c1ccc(N(C)C)cc1 (centres undefined)
GI50 (786-0): > 100 µM (inactive)
GI50 (A498): > 100 µM (inactive)
GI50 (A549): > 100 µM (inactive)
GI50 (ACHN): > 100 µM (inactive)
GI50 (BT-549): > 100 µM (inactive)
GI50 (CAKI-1): > 100 µM (inactive)
GI50 (CCRF-CEM): > 100 µM (inactive)
GI50 (COLO 205): > 100 µM (inactive)
GI50 (DU-145): > 100 µM (inactive)
GI50 (EKVX): > 100 µM (inactive)
GI50 (HCC 2998): > 100 µM (inactive)
GI50 (HCT-116): > 100 µM (inactive)
GI50 (HCT-15): > 100 µM
GI50 (HL-60): > 100 µM (inactive)
GI50 (HOP-62): > 100 µM (inactive)
GI50 (HOP-92): > 100 µM (inactive)
GI50 (HT-29): > 100 µM (inactive)
GI50 (IGROV-1): > 100 µM (inactive)
GI50 (K562): > 100 µM (inactive)
GI50 (KM12): > 100 µM (inactive)
GI50 (LOX IMVI): > 100 µM (inactive)
GI50 (MCF7): > 100 µM (inactive)
GI50 (MDA-MB-231): > 100 µM (inactive)
GI50 (MDA-MB-435): > 100 µM (inactive)
GI50 (MOLT-4): > 100 µM (inactive)
GI50 (Malme-3M): > 100 µM (inactive)
GI50 (NCI-H226): > 100 µM (inactive)
GI50 (NCI-H23): > 100 µM (inactive)
GI50 (NCI-H460): > 100 µM (inactive)
GI50 (NCI-H522): > 100 µM (inactive)
GI50 (NCI/ADR-RES): > 100 µM (inactive)
GI50 (OVCAR-3): > 100 µM (inactive)
GI50 (OVCAR-4): > 100 µM (inactive)
GI50 (OVCAR-5): > 100 µM (inactive)
GI50 (OVCAR-8): > 100 µM (inactive)
GI50 (PC-3): > 100 µM (inactive)
GI50 (RXF 393): > 100 µM (inactive)
GI50 (SF-268): > 100 µM (inactive)
GI50 (SF-295): > 100 µM (inactive)
GI50 (SK-MEL-28): > 100 µM (inactive)
GI50 (SK-MEL-2): > 100 µM (inactive)
GI50 (SK-MEL-5): > 100 µM (inactive)
GI50 (SN12C): > 100 µM (inactive)
GI50 (SNB-19): > 100 µM (inactive)
GI50 (SNB-75): > 100 µM (inactive)
GI50 (SR): > 100 µM (inactive)
GI50 (SW-620): > 100 µM (inactive)
GI50 (T47D): > 100 µM (inactive)
GI50 (TK-10): > 100 µM (inactive)
GI50 (U-251): > 100 µM (inactive)
GI50 (UACC-257): > 100 µM (inactive)
GI50 (UACC-62): > 100 µM (inactive)
GI50 (UO-31): > 100 µM (inactive)

CC(=O)Oc1cccc2c1C(=O)CCCC2
GI50 (786-0): > 100 µM (inactive)
GI50 (A498): > 100 µM (inactive)
GI50 (A549): > 100 µM (inactive)
GI50 (ACHN): > 100 µM (inactive)
GI50 (BT-549): > 100 µM (inactive)
GI50 (CAKI-1): > 100 µM (inactive)
GI50 (CCRF-CEM): > 100 µM (inactive)
GI50 (COLO 205): > 100 µM (inactive)
GI50 (DU-145): > 100 µM (inactive)
GI50 (EKVX): > 100 µM (inactive)
GI50 (HCC 2998): > 100 µM (inactive)
GI50 (HCT-116): > 100 µM (inactive)
GI50 (HCT-15): > 100 µM
GI50 (HL-60): > 100 µM (inactive)
GI50 (HOP-62): > 100 µM (inactive)
GI50 (HT-29): > 100 µM (inactive)
GI50 (Hs-578T): > 100 µM (inactive)
GI50 (IGROV-1): > 100 µM (inactive)
GI50 (K562): > 100 µM (inactive)
GI50 (KM12): > 100 µM (inactive)
GI50 (LOX IMVI): > 100 µM (inactive)
GI50 (M14): > 100 µM (inactive)
GI50 (MCF7): > 100 µM (inactive)
GI50 (MDA-MB-231): > 100 µM (inactive)
GI50 (MDA-MB-435): > 100 µM (inactive)
GI50 (MOLT-4): > 100 µM (inactive)
GI50 (Malme-3M): > 100 µM (inactive)
GI50 (NCI-H226): > 100 µM (inactive)
GI50 (NCI-H23): > 100 µM (inactive)
GI50 (NCI-H460): > 100 µM (inactive)
GI50 (NCI-H522): > 100 µM (inactive)
GI50 (NCI/ADR-RES): > 100 µM (inactive)
GI50 (OVCAR-3): > 100 µM (inactive)
GI50 (OVCAR-4): > 100 µM (inactive)
GI50 (OVCAR-5): > 100 µM (inactive)
GI50 (OVCAR-8): > 100 µM (inactive)
GI50 (PC-3): > 100 µM (inactive)
GI50 (RXF 393): > 100 µM (inactive)
GI50 (SF-268): > 100 µM (inactive)
GI50 (SF-295): > 100 µM (inactive)
GI50 (SF-539): > 100 µM (inactive)
GI50 (SK-MEL-28): > 100 µM (inactive)
GI50 (SK-MEL-2): > 100 µM (inactive)
GI50 (SK-MEL-5): > 100 µM (inactive)
GI50 (SK-OV-3): > 100 µM (inactive)
GI50 (SN12C): > 100 µM (inactive)
GI50 (SNB-19): > 100 µM (inactive)
GI50 (SNB-75): 0.0692 µM (active)
GI50 (SR): > 100 µM (inactive)
GI50 (SW-620): > 100 µM (inactive)
GI50 (T47D): > 100 µM (inactive)
GI50 (TK-10): > 100 µM (inactive)
GI50 (U-251): > 100 µM (inactive)
GI50 (UACC-257): > 100 µM (inactive)
GI50 (UACC-62): > 100 µM (inactive)
GI50 (UO-31): > 100 µM (inactive)

CC(C)(C)[Si](C)(C)OCC1OC(n2cc(I)c(=O)[nH]c2=O)C(O[Si](C)(C)C(C)(C)C)C1O[Si](C)(C)C(C)(C)C (centres undefined)
GI50 (A549): 11.4 µM (inactive)
GI50 (ACHN): 15.2 µM (inactive)
GI50 (BT-549): 24 µM (inactive)
GI50 (COLO 205): 19.1 µM (inactive)
GI50 (EKVX): 22 µM (inactive)
GI50 (HCT-15): 29.8 µM
GI50 (HOP-62): 20.1 µM (inactive)
GI50 (HOP-92): 22.1 µM (inactive)
GI50 (HT-29): 14.3 µM (inactive)
GI50 (Hs-578T): 18.6 µM (inactive)
GI50 (IGROV-1): 17.7 µM (inactive)
GI50 (LOX IMVI): 12.5 µM (inactive)
GI50 (M14): 15.7 µM (inactive)
GI50 (MCF7): 12.9 µM (inactive)
GI50 (MDA-MB-231): 15.3 µM (inactive)
GI50 (MOLT-4): 10.7 µM (inactive)
GI50 (Malme-3M): 53.3 µM (inactive)
GI50 (NCI-H226): 25.6 µM (inactive)
GI50 (NCI-H460): 15.5 µM (inactive)
GI50 (NCI-H522): 9.68 µM (inactive)
GI50 (NCI/ADR-RES): > 100 µM (inactive)
GI50 (OVCAR-3): 14.3 µM (inactive)
GI50 (OVCAR-4): 55.8 µM (inactive)
GI50 (OVCAR-5): 24.8 µM (inactive)
GI50 (OVCAR-8): 12.7 µM (inactive)
GI50 (PC-3): 7.24 µM (inactive)
GI50 (SF-268): 21.1 µM (inactive)
GI50 (SF-295): 15.2 µM (inactive)
GI50 (SK-MEL-2): > 10 µM (inactive)
GI50 (SK-MEL-5): 16.6 µM (inactive)
GI50 (SK-OV-3): 32.1 µM (inactive)
GI50 (SN12C): 26.9 µM (inactive)
GI50 (SNB-19): 19.5 µM (inactive)
GI50 (SNB-75): 16.1 µM (inactive)
GI50 (SR): 28.1 µM (inactive)
GI50 (SW-620): 14.6 µM (inactive)
GI50 (T47D): 17.1 µM (inactive)
GI50 (UACC-257): 10.5 µM (inactive)
GI50 (UACC-62): 16.7 µM (inactive)
GI50 (UO-31): 23.8 µM (inactive)

O=S(=O)(O)Oc1cc2c(c(OS(=O)(=O)O)c1)C[C@H](OS(=O)(=O)O)[C@@H](c1ccc(OS(=O)(=O)O)c(OS(=O)(=O)O)c1)O2
GI50 (A549): > 100 µM (inactive)
GI50 (ACHN): > 100 µM (inactive)
GI50 (BT-549): > 100 µM (inactive)
GI50 (COLO 205): > 100 µM (inactive)
GI50 (EKVX): > 100 µM (inactive)
GI50 (HCT-15): > 100 µM
GI50 (HOP-62): > 100 µM (inactive)
GI50 (HOP-92): > 100 µM (inactive)
GI50 (HT-29): > 100 µM (inactive)
GI50 (Hs-578T): > 100 µM (inactive)
GI50 (IGROV-1): > 100 µM (inactive)
GI50 (LOX IMVI): > 100 µM (inactive)
GI50 (M14): > 100 µM (inactive)
GI50 (MCF7): > 100 µM (inactive)
GI50 (MDA-MB-231): 85.7 µM (inactive)
GI50 (MOLT-4): > 100 µM (inactive)
GI50 (Malme-3M): > 100 µM (inactive)
GI50 (NCI-H226): > 100 µM (inactive)
GI50 (NCI-H460): > 100 µM (inactive)
GI50 (NCI-H522): > 100 µM (inactive)
GI50 (NCI/ADR-RES): > 100 µM (inactive)
GI50 (OVCAR-3): > 100 µM (inactive)
GI50 (OVCAR-4): > 100 µM (inactive)
GI50 (OVCAR-5): > 100 µM (inactive)
GI50 (OVCAR-8): > 100 µM (inactive)
GI50 (PC-3): > 100 µM (inactive)
GI50 (SF-268): > 100 µM (inactive)
GI50 (SF-295): > 100 µM (inactive)
GI50 (SK-MEL-2): > 100 µM (inactive)
GI50 (SK-MEL-5): > 100 µM (inactive)
GI50 (SK-OV-3): > 100 µM (inactive)
GI50 (SN12C): > 100 µM (inactive)
GI50 (SNB-19): > 100 µM (inactive)
GI50 (SNB-75): 43.6 µM (inactive)
GI50 (SR): > 100 µM (inactive)
GI50 (SW-620): > 100 µM (inactive)
GI50 (T47D): > 100 µM (inactive)
GI50 (UACC-257): > 100 µM (inactive)
GI50 (UACC-62): > 100 µM (inactive)
GI50 (UO-31): > 100 µM (inactive)
